Assay results reported in ChEMBL document CHEMBL5726394, “Therapeutic compounds and compositions” (2019).

Biological target: Isocitrate dehydrogenase [NADP], mitochondrial (Homo sapiens, UniProt P48735, R140Q)
Assay: IDH2 Enzymatic Assay: Compounds were assayed for IDH2 R140Q inhibitory activity through a cofactor depletion assay. […] The reaction was terminated by the addition of a second enzyme, diaphorase, and a corresponding substrate, resazurin. Diaphorase reduces resazurin to the highly fluorescent resorufin with the concomitant oxidation of NADPH to NADP, both halting the IDH2 reaction by depleting the available cofactor pool and facilitating quantitation of the amount of cofactor remaining after a specific time period through quantitative production of an easily detected fluorophore.Specifically, into each of 12 wells of a 384-well plate, 1 μl of compound dilution series was placed, followed by the addition of 40 μl of buffer (50 mM potassium phosphate, pH 7.5; 150 mM NaCl; 10 mM MgCl2, 10% glycerol, 0.05% bovine serum albumin, 2 mM beta-mercaptoethanol) containing 1.25 μg/ml IDH2 R140Q. The compound was then incubated for one hour at room temperature with the enzyme; before starting the IDH2 reaction with the addition of 10 μl of substrate mix containing 50 μM NADPH and 6.3 mM α-KG in the buffer described above. After a further one hour of incubation at room temperature, the reaction was halted and the remaining NADPH measured through conversion of resazurin to resorufin by the addition of 25 μl Stop Mix (36 μg/ml diaphorase enzyme and 60 μM resazurin; in buffer). […]

Chain of Isocitrate dehydrogenase [NADP], mitochondrial (P48735 40-452 R140Q limits assumed): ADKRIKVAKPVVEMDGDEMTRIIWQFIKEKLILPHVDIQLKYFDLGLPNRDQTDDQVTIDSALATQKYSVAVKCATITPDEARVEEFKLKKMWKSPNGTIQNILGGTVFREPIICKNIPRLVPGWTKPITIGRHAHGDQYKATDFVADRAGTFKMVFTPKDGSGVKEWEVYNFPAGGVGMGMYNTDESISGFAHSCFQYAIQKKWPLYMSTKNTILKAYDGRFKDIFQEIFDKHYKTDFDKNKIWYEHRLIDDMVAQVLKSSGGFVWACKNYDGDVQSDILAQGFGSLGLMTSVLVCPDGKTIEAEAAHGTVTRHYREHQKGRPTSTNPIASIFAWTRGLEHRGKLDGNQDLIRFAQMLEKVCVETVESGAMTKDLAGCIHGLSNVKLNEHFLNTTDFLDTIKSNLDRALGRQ

IC50 [nM]	SMILES
< 100	CCSc1ccc(S(=O)(=O)NCC(F)(F)F)cc1NC(=O)Nc1cccc(C(F)(F)F)c1
100 to 1000	O=C(Nc1cccc(C(F)(F)F)c1)Nc1cc(S(=O)(=O)Nc2ccccc2)ccc1-c1cccs1
